Experimental data published in PubChem BioAssay (NCI).
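1) Cells in 96-well plates. 2) Compound, 48 h, 5 concentrations. 3) Linear interpolation between surrounding doses. 4) Unreached endpoint = highest concentration. GI50: concentration for 50% inhibition of growth. TGI: concentration producing complete growth inhibition.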

Legend:
Test in all cases: NCI-60 cell line screen, 48 h
OVCAR-4 ovarian = test system: OVCAR-4 ovarian
BT-549 breast = test system: BT-549 breast
HCT-15 colon = test system: HCT-15 colon
COLO 205 colon = test system: COLO 205 colon
OVCAR-5 ovarian = test system: OVCAR-5 ovarian
UACC-257 melanoma = test system: UACC-257 melanoma
U251 CNS = test system: U251 CNS
NCI-H522 lung = test system: NCI-H522 lung
A549 NSCLC = test system: A549 NSCLC
TK-10 renal = test system: TK-10 renal
786-0 renal = test system: 786-0 renal
SK-OV-3 ovarian = test system: SK-OV-3 ovarian
SK-MEL-5 melanoma = test system: SK-MEL-5 melanoma
HOP-62 NSCLC = test system: HOP-62 NSCLC
K-562 leukemia = test system: K-562 leukemia
SF-539 CNS = test system: SF-539 CNS
LOX IMVI melanoma = test system: LOX IMVI melanoma
SNB-19 CNS = test system: SNB-19 CNS
NCI/ADR-RES ovarian = test system: NCI/ADR-RES ovarian
HOP-92 NSCLC = test system: HOP-92 NSCLC
A498 renal = test system: A498 renal
SN12C renal = test system: SN12C renal
NCI-H23 lung = test system: NCI-H23 lung
MALME-3M melanoma = test system: MALME-3M melanoma
UO-31 renal = test system: UO-31 renal
RXF 393 renal = test system: RXF 393 renal
SF-295 CNS = test system: SF-295 CNS
NCI-H226 lung = test system: NCI-H226 lung
UACC-62 melanoma = test system: UACC-62 melanoma
SNB-75 CNS = test system: SNB-75 CNS
CCRF-CEM leukemia = test system: CCRF-CEM leukemia
KM12 colon = test system: KM12 colon
OVCAR-8 ovarian = test system: OVCAR-8 ovarian
HCT-116 colon = test system: HCT-116 colon
DU-145 prostate = test system: DU-145 prostate
T-47D breast = test system: T-47D breast
SK-MEL-2 melanoma = test system: SK-MEL-2 melanoma
HCC-2998 colon = test system: HCC-2998 colon
PC-3 prostate = test system: PC-3 prostate
M14 melanoma = test system: M14 melanoma
RPMI-8226 leukemia = test system: RPMI-8226 leukemia
MOLT-4 leukemia = test system: MOLT-4 leukemia
MDA-MB-435 = test system: MDA-MB-435
CAKI-1 renal = test system: CAKI-1 renal
MCF7 breast = test system: MCF7 breast
MDA-MB-231 breast = test system: MDA-MB-231 breast
NCI-H460 lung = test system: NCI-H460 lung
SK-MEL-28 melanoma = test system: SK-MEL-28 melanoma
SR leukemia = test system: SR leukemia
HL-60(TB) leukemia = test system: HL-60(TB) leukemia
IGROV1 ovarian = test system: IGROV1 ovarian
ACHN renal = test system: ACHN renal
OVCAR-3 ovarian = test system: OVCAR-3 ovarian
SW-620 colon = test system: SW-620 colon
EKVX NSCLC = test system: EKVX NSCLC
HS 578T breast = test system: HS 578T breast
HT29 colon = test system: HT29 colon
SF-268 CNS = test system: SF-268 CNS

## O=C(CCN1CCCC1)Nc1ccc2c(Nc3ccccc3)c3ccccc3nc2c1
OVCAR-4 ovarian
  GI50: 0.468 µM
  TGI: 2.13 µM
BT-549 breast
  GI50: 1.5 µM
  TGI: 3.09 µM
HCT-15 colon
  GI50: 0.367 µM
  TGI: 2.36 µM
COLO 205 colon
  GI50: 0.787 µM
  TGI: 2.49 µM
OVCAR-5 ovarian
  GI50: 1.52 µM
  TGI: 4.4 µM
UACC-257 melanoma
  GI50: 1.75 µM
  TGI: 3.83 µM
U251 CNS
  GI50: 0.429 µM
  TGI: 2.19 µM
NCI-H522 lung
  GI50: 1.03 µM
  TGI: 2.88 µM
A549 NSCLC
  GI50: 0.113 µM
  TGI: 3.22 µM
TK-10 renal
  GI50: 1.28 µM
  TGI: 3.78 µM
786-0 renal
  GI50: 0.467 µM
  TGI: 1.93 µM
SK-OV-3 ovarian
  GI50: 0.651 µM
  TGI: 3.59 µM
SK-MEL-5 melanoma
  GI50: 1.38 µM
  TGI: 2.71 µM
HOP-62 NSCLC
  GI50: 0.404 µM
  TGI: 2.51 µM
K-562 leukemia
  GI50: 0.235 µM
  TGI: 1.2 µM
SF-539 CNS
  GI50: 1.14 µM
  TGI: 2.44 µM
LOX IMVI melanoma
  GI50: 0.398 µM
  TGI: 1.93 µM
SNB-19 CNS
  GI50: 0.432 µM
  TGI: 2.92 µM
NCI/ADR-RES ovarian
  GI50: 1.84 µM
  TGI: 7.22 µM
HOP-92 NSCLC
  GI50: 0.432 µM
  TGI: 2.26 µM
A498 renal
  GI50: 0.864 µM
  TGI: 2.22 µM
SN12C renal
  GI50: 0.306 µM
  TGI: 1.81 µM
NCI-H23 lung
  GI50: 0.383 µM
  TGI: 2 µM
MALME-3M melanoma
  GI50: 1.46 µM
  TGI: 2.83 µM
UO-31 renal
  GI50: 0.808 µM
  TGI: 2.38 µM
RXF 393 renal
  GI50: 0.981 µM
  TGI: 2.65 µM
SF-295 CNS
  GI50: 0.498 µM
  TGI: 1.91 µM
NCI-H226 lung
  GI50: 1.18 µM
  TGI: 3.53 µM
UACC-62 melanoma
  GI50: 1.12 µM
  TGI: 2.55 µM
SNB-75 CNS
  GI50: 1.09 µM
  TGI: 2.33 µM
CCRF-CEM leukemia
  GI50: 0.142 µM
  TGI: 2.14 µM
KM12 colon
  GI50: 0.546 µM
  TGI: 2.7 µM
OVCAR-8 ovarian
  GI50: 0.851 µM
  TGI: 5.51 µM
HCT-116 colon
  GI50: 0.611 µM
  TGI: 2.2 µM
DU-145 prostate
  GI50: 0.172 µM
  TGI: 1.64 µM
T-47D breast
  GI50: 0.399 µM
  TGI: 2.76 µM
SK-MEL-2 melanoma
  GI50: 1.69 µM
  TGI: 3.56 µM
HCC-2998 colon
  GI50: 0.733 µM
  TGI: 2.29 µM
PC-3 prostate
  GI50: 0.951 µM
  TGI: 3.01 µM
M14 melanoma
  GI50: 1.13 µM
  TGI: 2.69 µM
RPMI-8226 leukemia
  GI50: 0.48 µM
  TGI: 1.65 µM
MOLT-4 leukemia
  GI50: 0.0432 µM
  TGI: 1.56 µM
MDA-MB-435
  GI50: 1.44 µM
  TGI: 2.84 µM
CAKI-1 renal
  GI50: 0.397 µM
  TGI: 2.08 µM
MCF7 breast
  GI50: 0.0221 µM
  TGI: 1.77 µM
MDA-MB-231 breast
  GI50: 1.41 µM
  TGI: 3.45 µM
NCI-H460 lung
  GI50: 0.0489 µM
  TGI: 1.2 µM
SK-MEL-28 melanoma
  GI50: 1.6 µM
  TGI: 3.06 µM
SR leukemia
  GI50: 0.0503 µM
  TGI: 1.45 µM
HL-60(TB) leukemia
  GI50: 0.264 µM
  TGI: 1.61 µM
IGROV1 ovarian
  GI50: 0.474 µM
  TGI: 3.02 µM
ACHN renal
  GI50: 0.243 µM
  TGI: 1.51 µM
OVCAR-3 ovarian
  GI50: 1.06 µM
  TGI: 3.27 µM
SW-620 colon
  GI50: 0.232 µM
  TGI: 1.87 µM
EKVX NSCLC
  GI50: 1.41 µM
  TGI: 4.23 µM
HS 578T breast
  GI50: 1.09 µM
  TGI: 3.28 µM
HT29 colon
  GI50: 0.521 µM
  TGI: 3.14 µM
SF-268 CNS
  GI50: 0.677 µM
  TGI: 2.3 µM
